Tests used:
Turnip (TP) [1] = assay: Pre-emergence herbicide test, turnip; assay type: in vivo, Brassica sp.; conditions: two weeks
Experimental: (§1) Turnip (TP)--Brassica sp.
(§2) All crop and weed species were planted individually in 3" plastic pots containing potting soil. Four seeds each of corn, cotton, and snapbeans were seeded to a depth equal to the diameter of the seed. All other species were surface seeded and sprinkled with screened soil in an amount sufficient to cover the seed. Immediately after planting, all pots were watered by sub-irrigation in greenhouse trays. Pots for the pre-emergence phase were seeded one day before treatment.
(§3) Spray hood constants required to deliver the above volume are as follows:
(§4) Formulations for spray applications were prepared in 50 ml volumes with the following three components: […]
(§5) Spray applications were made in a hood containing a removable belt and fixed spray nozzle. For passage through the spray hood, one pot of each specie (pre-emergence phase) was placed on the rear half of the flat. Treatments were removed to the greenhouse after spraying. Watering during the observation period was done only by sub-irrigation.
(§6) Two weeks after treatment, pre- and post-emergence injury or control was visually rated, and the results were as shown in the following tables. Pre-emergence data are provided in TABLE III and post-emergence data are provided in TABLE IV, for compounds having the formula illustrated in TABLE I. Correspondingly, pre-emergence and post-emergence data, respectively, are set forth in TABLES V AND VI, for compounds having the formula illustrated in TABLE II.

Cotton (CT) [2] = assay: Post-emergence herbicide test, cotton; assay type: in vivo, Gossypium hirsutum var. DPL smooth leaf; conditions: two weeks
Experimental: (§7) Cotton (CT)--Gossypium hirsutum var. DPL smooth leaf
as §2
(§8) Planting dates for the post-emergence phase were varied so that all seedlings would reach the desired stage of development simultaneously. The proper stage of seedling development for treatment in the post-emergence phase is as follows:
cotton: first true leaf 1" in length; expanded cotyledons.
as §3
(§9) Formulations for spray applications were prepared in 50 ml volumes with the following three components:
(§10) Formulations for the 4 lbs/acre rate were prepared by adjusting the amount of active ingredient accordingly.
as §5, §6

Bean (BN) = assay: Post-emergence herbicide test, bean; assay type: in vivo, Phaseolus vulgaris var. Black Valentine; conditions: two weeks
Experimental: Bean (BN)--Phaseolus vulgaris var. Black Valentine
as §2, §8
Beans: primary leaves expanded, growing point at primary leaf nodes.
as §3, §9, §10, §5, §6

Turnip (TP) [3] = assay: Post-emergence herbicide test, turnip; assay type: in vivo, Brassica sp.; conditions: two weeks
Experimental: as §1, §2, §8
Pigweed and turnips: 1 or 2 true leaves above visible cotyledons.
as §3, §4, §5, §6

Crabgrass (CG) [4] = assay: Pre-emergence herbicide test, crabgrass; assay type: in vivo, Digitaria sanguinalis; conditions: two weeks
Experimental: (§11) Crabgrass (CG)--Digitaria sanguinalis
as §2, §3, §9, §10, §5, §6

Crabgrass (CG) [5] = assay: Post-emergence herbicide test, crabgrass; assay type: in vivo, Digitaria sanguinalis; conditions: two weeks
Experimental: as §11, §2, §8, §3, §4, §5, §6

Cotton (CT) [6] = assay: Pre-emergence herbicide test, cotton; assay type: in vivo, Gossypium hirsutum var. DPL smooth leaf; conditions: Gossypium hirsutum, pre-emergence, 336 h, 4 lb/acre, two weeks
Experimental: as §7, §2
Compounds were tested at rates of application equivalent to 8 lbs. of actual compound per acre in a spray volume of 38 gallons per acre. Spray hood constants required to deliver the above volume are as follows:
as §9, §10, §5, §6

How did the “PRE-EMERGENCE ACTIVITY, % CONTROL” value (Turnip (TP) [1]; 5 lb/acre) turn out when NC(=O)Nc1nnc(C(F)(F)F)s1 [Example 70] was run?
Its value is 10%.

And the “PRE-EMERGENCE ACTIVITY, % CONTROL” value (Turnip (TP) [1]; 10 lb/acre)?
Its value is 10%.

What about the “POST-EMERGENCE ACTIVITY, % CONTROL” value (Cotton (CT) [2]; 5 lb/acre) of the same compound?
The value was 20%.

What about the “POST-EMERGENCE ACTIVITY, % CONTROL” value (Cotton (CT) [2]; 10 lb/acre) of the same compound?
The value was 20%.

What about the “POST-EMERGENCE ACTIVITY, % CONTROL” value (Bean (BN); 5 lb/acre) of the same compound?
Its value is 50%.

What about the “POST-EMERGENCE ACTIVITY, % CONTROL” value (Bean (BN); 10 lb/acre) of the same compound?
Its value is 50%.

What about the “POST-EMERGENCE ACTIVITY, % CONTROL” value (Turnip (TP) [3]; 5 lb/acre) of the same compound?
The value was 80%.

And the “POST-EMERGENCE ACTIVITY, % CONTROL” value (Turnip (TP) [3]; 10 lb/acre)?
Its value is 80%.

And the “PRE-EMERGENCE ACTIVITY, % CONTROL” value (Crabgrass (CG) [4]; 5 lb/acre)?
The value was 10%.

What about the “PRE-EMERGENCE ACTIVITY, % CONTROL” value (Crabgrass (CG) [4]; 10 lb/acre) of the same compound?
Its value is 10%.

And the “POST-EMERGENCE ACTIVITY, % CONTROL” value (Crabgrass (CG) [5]; 5 lb/acre)?
Its value is 20%.

What about the “POST-EMERGENCE ACTIVITY, % CONTROL” value (Crabgrass (CG) [5]; 10 lb/acre) of the same compound?
Its value is 20%.

Which pest or weed control at 4483.4 g/ha (Cotton (CT) [6]) does the source give for CNC(=O)Nc1nnc(-c2cccc(C(F)(F)F)c2)s1 [Example 73] here?
The pest or weed control at 4483.4 g/ha was 10%.

What about the pest or weed control at 4483.4 g/ha (Crabgrass (CG) [5]; Digitaria sanguinalis, post-emergence, 336 h, 4 lb/acre) of the same compound?
The pest or weed control at 4483.4 g/ha was 80%.

How did the pest or weed control at 560.425 g/ha (Bean (BN); Phaseolus vulgaris, post-emergence, 336 h, 0.5 lb/acre) turn out when CCSc1nnc(N(C)C(=O)NC)s1 [Example 89] was run?
Its pest or weed control at 560.425 g/ha is 100%.
